According to patent US9107964B2, “Radioactive fluorine-labeled compound” (NIHON MEDI-PHYSICS CO., LTD., priority 2011, dated 2015):

Experiments:
Assay type in all cases: in vivo, mouse (Balb/c nu/nu)
[1] = tested on: mouse-derived breast cancer cell line (EMT6) tumor-bearing model mice; test: PET imaging of tumor-bearing model mice (incorporation into tumor cells, Example 10); settings: 60 minutes after administration; for Physiological accumulation in the liver compared with [^18F]FMISO: coronal tomographic PET image; for Excretion route: from coronal tomographic PET image
Procedure: Accumulation of compound 1, compound 2, and compound 3 in tumor cells in vivo was studied as follows using a mouse-derived breast cancer cell line (EMT6).
Preparation of tumor-bearing model mice: the animals used were six-week-old female Balb/c nu/nu mice (obtained from Japan SLC). Using these animals, a Matrigel suspension (cell count 2.5×10^6 cells/0.05 mL) of EMT6, which is a mouse-derived breast cancer cell line (obtained from ATCC), was subcutaneously implanted in a site from the right rib to the right shoulder. It was confirmed on the third day after implantation that the tumor cells were fixed, and the tumor volume attained 200 to 400 mm^3 9 to 11 days after implantation.

[2] = tested on: hypoxic region of EMT6 tumor (pimonidazole-positive area); test: Correlation between autoradiographic signal intensity (PSL value) and pimonidazole-positive area (Example 13); settings: tumor tissue sections after PET imaging
Procedure: In order to evaluate whether or not the compound related to the present invention can quantitatively visualize a hypoxic region of a tumor, the following experiment was carried out using compounds 1 to 3 and [^18F]FMISO.
Using a microscope system (model: BZ-9000, Keyence Corporation) a high magnification image of a pimonidazole-positive site was acquired using the entire image of a pathology image obtained by immunohistochemical staining in the Example 12 and a 10× objective lens. The high magnification image was formed with respect to a randomly selected image region. At the same time the image acquisition site was recorded as a navigation image by use of the navigation function of the microscope system. The acquired high magnification image was subjected to image processing, and a pimonidazole-positive area present in the high magnification image was determined.
The autoradiographic image and the stained image of each labeled compound used were those acquired in the Example 12. The resolution of the navigation image was made to match the resolution of the autoradiographic image, and the geometrical positions of two images were aligned using image analysis software.
In the autoradiographic image, an ROI was set for the site that coincided with the high magnification image acquisition site, and the PSL value (Photo-Stimulated Luminescence value) of the ROI was determined. Furthermore, an ROI was set for a site of the same image that contained no sample, and the PSL value thereof was defined as the background. The PSL value of the background was subtracted from the PSL value of the high magnification image acquisition site to obtain the net PSL value. The hypoxic marker pimonidazole-positive area was plotted on the abscissa and the PSL value in the autoradiographic image on the ordinate, and the correlation factor was determined. This series of operations was carried out for each of the labeled compounds.

[3] = tested on: EMT6 tumor-bearing model mice; test: Biodistribution in tumor and organs of tumor-bearing mouse (Example 14); settings: for Blood / Gall bladder / Heart / Kidney / Large intestine / Liver / Lung / Muscle / Small intestine / Stomach / T/B (tumor/blood ratio) / T/M (tumor/muscle ratio) / Tumor / Urine: mean; for Blood clearance and urinary excretion: compared with [^18F]FMISO, 60 and 120 minutes after administration
Procedure: The biodistribution of compounds 1 to 3 and [^18F]FMISO in a tumor and each of the organs of a tumor-bearing mouse was measured.
Tumor-bearing model mice used in this experiment were the same as those prepared in Example 10, and 3 or 4 cases that had attained a tumor volume of 200 to 400 mm^3 were selected from each group. The tumor-bearing model mouse was placed under isoflurane anesthesia, pimonidazole that is a hypoxic marker, was administered via a tail vein, and at 10 minutes thereafter, the respective labeled compound was administered. The tumor-bearing model mouse was sacrificed at 60 minutes and 120 minutes after administration. All of the tumor-bearing model mice were sacrificed by blood-letting from the abdominal aorta or by cardiocentesis, and dissection was carried out immediately thereafter. Other than the tumor, the blood, heart, lung, stomach, liver, gallbladder, kidney, small intestine and large intestine, muscle, and urine were sampled, and the other tissues were defined as the remaining whole body. After the weight of each tissue sampled was measured, the amount of radioactivity of the tissue was measured using a gamma counter, and the biodistribution of each of the labeled compounds was compared by converting it into % ID/g (% injection dose/g organ) of each tissue.
In order to examine a hypoxic state within the tumor, immunohistochemical staining of the sample tumor was carried out so as to ascertain whether or not the interior of the tumor was hypoxic. The sampled tumor was fixed using a 20% formalin buffer, and a paraffin block was prepared using an automatic paraffin-embedding apparatus (model: VIP-5-Jr-J0, Sakura Finetek). A slice (thickness: 3 μm) was prepared by means of a microtome (model: Tissue-Tek Feather Trustome, Sakura Finetek). Immunohistochemical staining was carried out by the same method as in Example 12.

[4] = 60 minutes after administration
[5] = 120 minutes after administration

Blood [3, 4] [% ID/g]	Gall bladder [3, 4] [% ID/g]	Heart [3, 4] [% ID/g]	Kidney [3, 4] [% ID/g]	Large intestine [3, 4] [% ID/g]	Liver [3, 4] [% ID/g]	Lung [3, 4] [% ID/g]	Muscle [3, 4] [% ID/g]	Small intestine [3, 4] [% ID/g]	Stomach [3, 4] [% ID/g]	T/B (tumor/blood ratio) [3, 4]	T/M (tumor/muscle ratio) [3, 4]	Tumor [3, 4] [% ID/g]	Urine [3, 4] [% ID]	Blood [3, 5] [% ID/g]	Structure (SMILES)	Sites of accumulation on coronal tomographic image [1]	Tumor-specific accumulation on axial tomographic image [1]	Physiological accumulation in the liver compared with [^18F]FMISO [1]	Excretion route [1]	Correlation coefficient (pimonidazole-positive area vs PSL value in autoradiographic image) [2]	other results
0.60	7.54	1.32	1.86	0.96	1.14	0.89	1.25	2.35	0.48	2.11	0.91	1.13	80.42	0.25	O=[N+]([O-])c1nc(CO)cn1CC(CO)(CO)C[18F] [Compound 2, 1-(2,2-Dihydroxymethyl-3-[^18F]fluoropropyl)-4-hydroxymethyl-2-nitroimidazole]	intense accumulation of compound 2 and compound 3 was found in the bladder and accumulation thereof was found in the intestinal tract	tumor-specific accumulation	low physiological accumulation in the liver	excreted mainly via the kidney and urinary tract system	0.80	Gall bladder [3, 5]: 7.33 % ID/g; Heart [3, 5]: 0.74 % ID/g; Kidney [3, 5]: 0.82 % ID/g; Large intestine [3, 5]: 0.88 % ID/g; Liver [3, 5]: 0.54 % ID/g; Lung [3, 5]: 0.34 % ID/g; Muscle [3, 5]: 0.47 % ID/g; Small intestine [3, 5]: 1.63 % ID/g; Stomach [3, 5]: 0.25 % ID/g; T/B (tumor/blood ratio) [3, 5]: 3.18; T/M (tumor/muscle ratio) [3, 5]: 1.68; Tumor [3, 5]: 0.78 % ID/g; Urine [3, 5]: 90.92 % ID; Blood clearance and urinary excretion [3]: even more rapid
1.70	26.34	2.35	4.23	3.71	3.34	1.96	1.71	3.72	1.53	1.42	1.39	2.38	62.13	0.75	O=[N+]([O-])c1nccn1CC(CO)(CO)C[18F] [Compound 1, 1-(2,2-Dihydroxymethyl-3-[^18F]fluoropropyl)-2-nitroimidazole]	intense accumulation of compound 1 in the bladder, and accumulation thereof in the gallbladder and the intestinal tract	tumor-specific accumulation separated from normal tissue such as muscle	low physiological accumulation in the liver	excreted via the kidney and urinary tract excretion and hepatobiliary excretion systems	0.85	Gall bladder [3, 5]: 8.21 % ID/g; Heart [3, 5]: 1.90 % ID/g; Kidney [3, 5]: 2.91 % ID/g; Large intestine [3, 5]: 2.37 % ID/g; Liver [3, 5]: 4.31 % ID/g; Lung [3, 5]: 0.89 % ID/g; Muscle [3, 5]: 0.84 % ID/g; Small intestine [3, 5]: 2.78 % ID/g; Stomach [3, 5]: 0.88 % ID/g; T/B (tumor/blood ratio) [3, 5]: 2.47; T/M (tumor/muscle ratio) [3, 5]: 2.03; Tumor [3, 5]: 1.65 % ID/g; Urine [3, 5]: 77.76 % ID; Blood clearance and urinary excretion [3]: rapid blood clearance and urinary excretion compared with [^18F]FMISO
